# From patent publication US20070185119A1, “Therapeutic agents II” (ASTRAZENECA AB, priority 2004, published 2007)
# pIC50: −log10 of the molar value.
# Target: T1, human Melanin concentrating hormone receptor 1 (MCH1r) (Homo sapiens, UniProt Q99705)
# T1 construct: expressed in transfected cells; host or cells: CHO-K1 cells (membranes)
# Experiment: MCH1 receptor radioligand binding (125I-MCH, CHO-K1 cell membranes)
# Conditions: human MCHr binding assay
# Experimental: MCH1 Receptor Radioligand Binding.
# Assays were performed on membranes prepared from CHO-K1 cells expressing the human Melanin concentrating hormone receptor 1 (MCH1r). Assays were performed in a 96-well plate format in a final reaction volume of 200 μl per well. Each well contained 6 μg of membrane proteins diluted in binding buffer (50 mM Tris, 3 mM MgCl2, 0.05% bovine serum albumin (BSA) and the radioligand ^125I-MCH (IM344 Amersham) was added to give 10 000 cpm (counts per minute) per well. Each well contained 2 μl of the appropriate concentration of competitive antagonist prepared in DMSO and left to stand at 30° C. for 60 minutes. Non-specific binding was determined as that remaining following incubation with 1 μM MCH (Melanin concentrating hormone, H-1482 Bachem). The reaction was terminated by transfer of the reaction to GF/A filters using a Micro96 Harvester (Skatron Instruments, Norway). Filters were washed with assay buffer. Radioligand retained on the filters was quantified using a1450 Microbeta TRILUX (Wallac, Finland).
# Non-specific binding was subtracted from all values determined. Maximum binding was that determined in the absence of any competitor following subtraction of the value determined for non-specific binding. […]
# T1 sequence (Q99705 whole entry): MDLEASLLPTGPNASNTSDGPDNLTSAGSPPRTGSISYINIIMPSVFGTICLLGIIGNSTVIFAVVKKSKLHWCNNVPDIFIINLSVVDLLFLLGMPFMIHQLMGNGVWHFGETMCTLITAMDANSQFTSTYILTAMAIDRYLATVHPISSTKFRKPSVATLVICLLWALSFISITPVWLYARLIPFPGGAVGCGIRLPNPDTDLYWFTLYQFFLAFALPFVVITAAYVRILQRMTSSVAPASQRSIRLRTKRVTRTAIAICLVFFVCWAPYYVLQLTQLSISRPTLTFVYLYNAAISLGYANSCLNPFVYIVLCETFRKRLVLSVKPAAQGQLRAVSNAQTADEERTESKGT
smiles,measurement,value
"CN(C)c1nc(N[C@H]2CCC[C@H](NCc3cn(C)c4ccccc34)C2)nc2ccccc12 (relative stereo) [Example 4, N^4,N^4-dimethyl-N^2-(-3-{[(1-methyl-1H-indol-3-yl)methyl]amino}-trans-cyclohexyl)quinazoline-2,4-diamine]",pIC50,7.82
